# Experimental data published in patent US6770740B1, “Crosslinked DNA condesate compositions and gene delivery methods” (The Regents of the University of Michigan, priority 1999, dated 2004).
# Where a SMILES comes first, the peptide text is derived from it. Where no end group is shown, it is not given here. Side-chain parts run from the residue outwards. vinylsulfone = vinylsulfone linkage of the PEG to the cysteine sulfhydryl (non-reducible, from PEG-vinylsulfone)
# Legend:
# HepG2 cells [1] = experiment: Cytotoxicity in cell culture: total protein of cell homogenates 24 h after transfection; type: cell-based; settings: 1-4 mol equivalents of glutaraldehyde corresponding to 1.5-6 μM
# Protocol: HepG2 cells (3×10^5) were plated on 6×35 mm wells and grown for 48 h to 40% confluence in MEM supplemented with 10% fetal calf serum (FCS). Crosslinked DNA condensates (10 μg of DNA in 200 μL) were transfected in triplicate by drop wise addition to cells in 2% FCS either with or without 80 μM chloroquine followed by 5 h incubation, after which the media was replaced with 2 mL of MEM containing 10% fetal calf serum and allowed to incubate for an additional 19 h. Wells were sampled for 10 days at 24 h intervals by removing and freezing (−20° C.) the media and replacing it with 2 mL of fresh 10% FCS MEM.
# The cytotoxity of both free glutaraldehyde and crosslinked DNA condensates were examined in cell culture. The total protein of cell homogenates harvested 24 h after transfecting cells in the presence of free glutaraldehyde or crosslinked DNA condensates were indistinguishable from control, indicated no toxicity when using 1-4 mol equivalents of glutaraldehyde corresponding to 1.5-6 μM.
# HepG2 cells [2] = experiment: In vitro luciferase gene expression, Example 1; type: cell-based; settings: HepG2, 24 h post-transfection, 10 μg DNA, 80 μM chloroquine
# Protocol: HepG2 cells were plated at 1.5×10^5 cells per 35 mm well and grown to 40-70% confluence in MEM supplemented with 10% fetal calf serum (FCS). Peptide DNA condensates (10 μg of DNA) were added dropwise to triplicate sets of cells in 2% FCS containing 80 μM chloroquine. After 5 h incubation at 37° C., the media was replaced with MEM supplemented with 10% FCS, and luciferase expression was determined at 24 h. Cells were washed twice with ice-cold phosphate buffered saline (calcium and magnesium free) and then treated with 0.5 ml of ice-cold lysis buffer (25 mM Tris hydrochloride pH 7.8, 1 mM EDTA, 8 mM magnesium chloride, 1% Triton X-100, 1 mM DTT) for 10 min. The cell lysate was scraped, transferred to 1.5 ml micro centrifuge tubes, and centrifuged for 7 min at 13,000 g at 4° C. to pellet debris.
# Lysis buffer (300 μl), sodium-ATP (4 μl of a 180 mM solution, pH 7, 4° C.) and cell lysate (100 μl, 4° C.) were combined in a test tube, briefly mixed and immediately placed in the luminometer. Luciferase relative light units (RLU) were recorded on a Lumat™ LB 9501 (Berthold Systems, Germany) with 10 sec integration after automatic injection of 100 μl of 0.5 mM D-luciferin (prepared fresh in lysis buffer without DTT). […]
# HepG2 cells [3] = experiment: Cell binding of 125I-DNA condensates, Example 1; type: cell-based; settings: 5 h transfection, 10 μg 125I-DNA condensates
# Protocol: Iodinated plasmid DNA was prepared with specific activity of 300 nCi per μg of DNA as described previously (Teribesi et al., 1998). Prior to forming DNA condensates, the specific activity of the ^125I DNA was adjusted to 4.5 nCi per μg of DNA by combining with unlabeled plasmid. DNA condensates were prepared using AlkCWK18, PEG-SS-CWK18 or PEG-VS-CWK18 as described above. Peptide ^125I-DNA condensates (10 μg) were used to transfer HepG2 cells for 5 h according to the procedure described above. The radioactive media was removed, cells were washed with phosphate buffered saline, harvested with lysis buffer, and the cell-associated radioactivity was quantified by gamma counting.
# [4] = Particle size and zeta potential of peptide DNA condensates after freeze-drying and rehydration, Example 2; type: physicochemical; settings: no sucrose
# Protocol: The concentration of AlkCWK18 and PEG-CWK18 were determined by UV absorbance (Trp, ε280 nm=5,600 M^−1 cm^−1). Peptide DNA condensates were prepared in 5 mM Hepes pH 5 at a peptide/DNA stoichiometry of 0.3 nmol of peptide/μg of DNA. The condensates were formed by adding 450 μL of 100 μg/mL NT-βGal drop wise to 450 μL of 30 nmol/mL AlKCWK18 or PEG-CWK18 while vortexing. Each sample was prepared in triplicate, and after a 30 min equilibration, 20-100 μL of 50 wt/vol % solutions of either glucose, mannitol, galactose, dextran or sucrose were added followed by normalization to 1 mL to give a final sugar concentration of 1-5 wt/vol % and DNA concentration of 50 μg/mL.
# The mean particle size of 50 μg/mL AlkCWK18 DNA condensates were determined by quasielastic light scattering (QELS) on a Brookhaven ZetaPlus™. Samples (1 mL) were frozen rapidly in dry ice ethanol in a 1.5 mL microcentrifuge tube and then lyophilized on a Labconco™ freeze dryer for 24 h operated at a constant vacuum of 55×10^−6 mBar while maintained at room temperature (22° C.). The maximal vacuum was achieved within 2 min after applying the sample.
# At the highest sucrose concentration of 5 wt/vol %, samples remained frozen throughout freeze-drying but dried to form a glassy solid after 24 h. […] Freeze-dried samples prepared in triplicate were reconstituted in 1 mL of deionized water, allowed to equilibrate for 30 min and then analyzed by QELS as described above. Large peptide DNA condensates were measured by light microscopy with magnification of 100X. The particle size of PEG-peptide DNA condensates were also measured by transmission electron microscopy (TEM) according to a published procedure (Wadhwa et al., 1997).
# The relationship between pH and rehydrated peptide DNA condensate particle size was examined in 5 mM Hepes at a pH range of 3-7. The particle size of 50 μg/mL DNA condensates in 5 wt/vol % sucrose was determined by QELS before and after freeze-drying as described above.
# The rehydrated particle size of AlkCWK18 or PEG-CWK18 DNA condensates were also examined at a concentration of 0.05-5 mg/mL in 5 mM Hepes pH 5 with (AlkCWK18 DNA) or without (PEG-CWK18 DNA) the addition of 5 wt/vol % sucrose. DNA condensates were freeze-dried and reconstituted to the original concentration. QELS particle size analysis before and after freeze-drying required dilution of an aliquot of the sample to concentration of 50 μg/mL. Freeze-dried 5 mg/mL PEG-CWK18 DNA condensates were also reconstituted in 0.9 wt/vol % sodium chloride and analyzed for particle size.
# [5] = Solubility of peptide DNA condensates: particle size as a function of DNA concentration; type: physicochemical; settings: throughout DNA concentrations 0.05-2 mg/ml
# [6] = QELS particle size and zeta potential of PEG-peptide DNA condensates and co-condensates, Example 1; type: physicochemical
# Protocol: The particle size of peptide DNA condensates were analyzed at a DNA concentration of 50 μg/ml in Hepes by quasielastic light scattering (QELS). The particle surface change was determined by zeta potential analysis using a Brookhaven ZetaPlus™ (Brookhaven Instruments).
# DNA co-condensates were prepared by add-mixing AlkCWK18 and PEG-VS-CWK18 in ratios ranging from 0 to 100 mol %, and condensing DNA at a charge ratio of 2.3:1 as described above. To establish the mol ratio of peptides bound to DNA, condensates were dialyzed in a fixed volume (0.5 ml) dialyzer for 75 h against water using a 100,000 MWCO membrane. Peptide DNA condensates in the retentate (0.5 ml) were dissociated by adding 50 μl of 5 M sodium chloride in 0.1% TFA. AlkCWK18 and PEG-VS-CWK18 were quantified by injecting 1 nmol of peptide (100 μl) onto analytical RP-HPLC eluted with 0.1% TFA and a gradient of acetonitrile (5 to 65% over 30 min) while detecting tryptophan by fluorescence (λex 280 nm, λem 350 nm). The peak integration areas were used to quantify AlkCWK18 and PEG-VS-CWK18 with reference to standard curves developed for each peptide.
# plasmid DNA = experiment: Fluorescent dye (thiazole orange) displacement assay of peptide binding to DNA, Example 1; settings: corresponding to a charge ratio of 1.8:1
# Protocol: Peptide DNA condensates were formed by adding 75 μg of DNA (pCMVL in 750 μl of 5 mM Hepes pH 7.4) to varying amounts of peptide (7.5 to 90 nmol in 750 μl of Hepes) while vortexing, followed by equilibration at RT for 1 h. Peptide binding to DNA was monitored by a fluorescent dye displacement assay (Wadhwa et al. 1997). A 1 μg aliquot of the peptide DNA condensate was diluted to 1 ml in Hepes containing 0.1 μM thiazole orange. The fluorescence of the intercalated dye was measured on an LS50B fluorimeter (Perkin Elmer, UK) in a microcuvette by exciting at 500 nm while monitoring emission at 530 nm.
# [7] = Serum stability of DNA condensates in DNase I augmented mouse serum; type: in vitro ADME; settings: 50% serum containing 0.12 units of DNase I, 37° C.
# Protocol: DNA condensates (100 μL) were combined with 100 μL of DNase I augmented mouse serum (0.12 U of DNase I per 100 μl serum) and 3 μL of 5 M sodium chloride to bring the final salt concentration to 150 mM. Samples were incubated at 37° C. for 3 h while rapidly freezing 20 μL aliquots at time points ranging from 0 to 180 min. Serum samples were processed by adding 3 μL (0.31 U) of proteinase K and then incubated at 37° C. for 30 min to remove endonuclease activity. Sodium chloride was then added (4.6 μL of 5 M) along with trypsin (3 μL containing 7 U) and allowed to digest for 12 h at 37° C. to remove the crosslinked peptide. Samples were applied to a 1% agarose gel containing 0.05% SDS and electrophoresed as described above.
compound,measurement,setting,value
O=CCCCC=O [glutaraldehyde],cytotoxicity,HepG2 cells [1],no toxicity
PEG-VS-CWK18: non-reducible PEG-peptide from PEG-vinylsulfone (5 kDa) and the sulfhydryl of CWK18 (C([vinylsulfone-PEG 5 kDa])WKKKKKKKKKKKKKKKKKK),reduction of spontaneous gene transfer (luciferase expression) relative to AlkCWK18 DNA condensates,HepG2 cells [2],1000 fold
same,"cell associated 125I-DNA, percent of dose",HepG2 cells [3],0.2%
same,particle diameter of freeze-dried and rehydrated DNA condensates by TEM,[4]; 5 mg/mL DNA,less than 100 nm
same,DNA concentration up to which particle size was retained on rehydration,[4]; rehydrated in water or normal saline,5 mg/mL
same,mean diameter of DNA condensates,[5],< 100 nm
same,zeta potential of DNA condensates,[6]; charge ratio 1.8:1,+10 mV
same,mean diameter of DNA condensates,"[6]; charge ratio of 1.8:1 or higher, 50 μg/ml DNA in Hepes",90 nm
same,peptide:DNA stoichiometry at the asymptote of the dye displacement titration curve (relative DNA binding affinity),plasmid DNA,0.3 nmol per μg of DNA
"NCCCC[C@H](NC(=O)[C@H](CCCCN)NC(=O)[C@H](CCCCN)NC(=O)[C@H](CCCCN)NC(=O)[C@H](CCCCN)NC(=O)[C@H](CCCCN)NC(=O)[C@H](CCCCN)NC(=O)[C@H](CCCCN)NC(=O)[C@H](CCCCN)NC(=O)[C@H](CCCCN)NC(=O)[C@H](CCCCN)NC(=O)[C@H](CCCCN)NC(=O)[C@H](CCCCN)NC(=O)[C@H](CCCCN)NC(=O)[C@H](CCCCN)NC(=O)[C@H](CCCCN)NC(=O)[C@H](CCCCN)NC(=O)[C@H](CCCCN)NC(=O)[C@H](Cc1c[nH]c2ccccc12)NC(=O)[C@@H](N)CS)C(=O)O [CWK18, Cys-Trp-Lys18] (H-CWKKKKKKKKKKKKKKKKKK-OH; N-terminus and C-terminus assumed)",time of stability of DNA before metabolism into oligonucleotides,[7],60 min
